Experiment [1] deals with T1, muscle-type nicotinic acetylcholine receptor (nAChR) (Torpedo marmorata, UniProt P02711+Q6S3H8+Q6S3H9+Q6S3I0).
T1 construct: gene CHRNA1; native nAChR purified from electroplax, reconstituted in asolectin lipids and microtransplanted to Xenopus oocytes; with β, γ and δ subunits of the heteropentamer
The experiment in a line: two-electrode voltage clamp, ACh concentration-current curve (agonist). The experiment is classed as cell-based.

The target of experiment [2] is T1, muscle-type nicotinic acetylcholine receptor (nAChR). The experiment in a line: two-electrode voltage clamp, inhibition of currents evoked by […] ACh at −[…] mV. The experiment is classed as cell-based.

The structures appear in SMILES notation.

T1 sequence (P02711 25-461): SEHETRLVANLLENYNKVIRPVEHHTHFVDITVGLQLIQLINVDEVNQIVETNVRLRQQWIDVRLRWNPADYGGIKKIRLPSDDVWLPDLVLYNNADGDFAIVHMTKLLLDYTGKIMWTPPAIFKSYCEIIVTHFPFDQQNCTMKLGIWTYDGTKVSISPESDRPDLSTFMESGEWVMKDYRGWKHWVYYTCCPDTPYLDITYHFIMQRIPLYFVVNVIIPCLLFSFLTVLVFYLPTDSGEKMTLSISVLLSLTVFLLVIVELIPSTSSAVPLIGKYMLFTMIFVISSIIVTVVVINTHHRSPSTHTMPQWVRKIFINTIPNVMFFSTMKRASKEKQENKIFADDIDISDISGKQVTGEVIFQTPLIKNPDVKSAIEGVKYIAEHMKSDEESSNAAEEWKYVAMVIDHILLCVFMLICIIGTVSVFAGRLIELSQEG
T1 sequence (Q6S3I0 25-493): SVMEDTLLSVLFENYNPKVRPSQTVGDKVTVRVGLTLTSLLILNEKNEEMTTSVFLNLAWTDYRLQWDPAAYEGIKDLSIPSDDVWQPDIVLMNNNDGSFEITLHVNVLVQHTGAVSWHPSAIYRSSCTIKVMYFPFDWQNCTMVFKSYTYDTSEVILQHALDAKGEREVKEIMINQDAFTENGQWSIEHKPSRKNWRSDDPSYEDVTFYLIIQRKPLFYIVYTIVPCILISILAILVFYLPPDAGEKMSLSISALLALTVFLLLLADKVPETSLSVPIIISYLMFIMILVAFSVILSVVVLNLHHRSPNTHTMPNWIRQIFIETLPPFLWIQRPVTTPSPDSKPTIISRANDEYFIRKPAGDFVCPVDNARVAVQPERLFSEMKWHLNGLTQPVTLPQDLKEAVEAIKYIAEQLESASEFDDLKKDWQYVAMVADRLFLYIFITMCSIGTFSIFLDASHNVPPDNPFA
T1 sequence (Q6S3H9 18-505): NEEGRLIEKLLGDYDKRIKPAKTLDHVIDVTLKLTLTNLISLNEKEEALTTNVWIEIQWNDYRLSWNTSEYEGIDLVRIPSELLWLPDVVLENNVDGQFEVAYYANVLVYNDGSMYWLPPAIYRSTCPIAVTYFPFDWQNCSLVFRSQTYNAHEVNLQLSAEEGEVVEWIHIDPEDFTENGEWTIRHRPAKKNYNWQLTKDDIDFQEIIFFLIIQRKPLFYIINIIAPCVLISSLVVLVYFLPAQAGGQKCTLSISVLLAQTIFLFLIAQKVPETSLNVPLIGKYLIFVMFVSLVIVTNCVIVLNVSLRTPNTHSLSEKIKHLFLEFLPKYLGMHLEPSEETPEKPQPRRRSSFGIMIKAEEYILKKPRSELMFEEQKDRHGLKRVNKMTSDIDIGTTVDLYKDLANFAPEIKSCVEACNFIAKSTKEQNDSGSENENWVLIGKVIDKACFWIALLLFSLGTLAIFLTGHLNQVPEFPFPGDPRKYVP
T1 sequence (Q6S3H8 22-522): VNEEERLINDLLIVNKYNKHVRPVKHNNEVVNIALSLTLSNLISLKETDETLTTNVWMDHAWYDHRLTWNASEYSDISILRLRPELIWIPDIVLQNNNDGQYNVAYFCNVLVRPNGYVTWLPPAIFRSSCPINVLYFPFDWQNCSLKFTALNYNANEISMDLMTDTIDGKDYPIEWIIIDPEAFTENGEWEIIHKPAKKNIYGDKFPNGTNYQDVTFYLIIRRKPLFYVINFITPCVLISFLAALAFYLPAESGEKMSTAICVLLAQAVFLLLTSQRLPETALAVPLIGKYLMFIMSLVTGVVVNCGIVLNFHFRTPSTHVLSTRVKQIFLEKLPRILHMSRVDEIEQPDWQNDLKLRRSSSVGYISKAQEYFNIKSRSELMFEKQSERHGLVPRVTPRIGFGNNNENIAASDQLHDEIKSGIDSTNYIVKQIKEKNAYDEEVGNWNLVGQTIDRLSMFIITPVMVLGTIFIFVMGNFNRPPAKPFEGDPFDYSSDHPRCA

As to `CC(=O)OCC[N+](C)(C)C` [ACh, acetylcholine], the concentration giving a half-maximal response (EC50) in experiment [1] worked out at 46 µM.
The compound `CCNCC` [DEA, diethylamine] came in with an IC50 in experiment [2] of 68 µM.
